According to patent US20170042991A1, “COMPOSITIONS COMPRISING GLUTEN PEPTIDES AND USES THEREOF” (ImmusanT, Inc., priority 2014, published 2017):
Non-standard residues stand in square brackets, D forms with d. pGlu = O=C1CC[C@@H](C(=O)O)N1

What was measured:
PBMC [1] = test: IFN-gamma ELISpot of PBMC, Day-6 after gluten challenge (Example 1); format: cell-based, human; conditions: DQ2.5+ CD
PBMC [2] = test: Overnight IFNγ ELISpot assay with fresh PBMC (Example 2); format: cell-based, human; conditions: for Percent of maximal response, ELISp: after oral gluten challenge; for IFNγ ELISpot % max Mean: individual peptides 5 μM, Day-6, n = 5, Peptide 2 = CSBio batch
Experimental: Ten HLA-DQ2.5+ adults with celiac disease diagnosed according to the National Institutes of Health Consensus Statement 2004 were enrolled (Table 7).^22 Subjects were required to have followed gluten-free diet for at least one year and without known gluten exposures within the previous two-months. […] Full inclusion and exclusion criteria are described in Table 8. Each of 3 consecutive days subjects consumed 3 cookies that were prepared from approximately 4.5 g wheat gluten, 3 g barley flour protein, and 1.5 g rye flour protein. Blood was collected before and six days after commencing the oral challenge. Blood was collected using a 21G butterfly needle directly into 10 mL lithium heparin tubes (BD Vacutainer® Heparin tube #367880) and QuantiFERON® NIL (0591-0205, Cellestis Ltd., Chadstone VIC 3148 Australia) and QuantiFERON® MITOGEN (0593-0201, Cellestis Ltd.).
Overnight IFNγ ELISpot assays (Human IFN-γ ELISpotPRO kit, transparent, ALP; Mabtech AB, #3420-2APT-10) were performed using PBMC freshly separated from heparinized blood diluted 1:1 in PBS with 2% fetal bovine serum (Stemcell Technologies #07905; Vancouver, BC, V5Z 1B3, Canada) overlaid on density gradient medium (Ficoll-Paque™ PLUS; GE Healthcare Lice Sciences #:17-1440-02) in SepMate™-50 tubes (Stemcell Technologies #15460). PBMC (8 million/mL) were resuspended in serum-free medium with gentamicin and phenol red (X-VIVO™15; Lonza, Walkersville Mass. 21793). PBMC (0.4 million/50 μL/well) and incubated with 50 μL 80% X-vivol5, 0.2% DMSO and 20% PBS in three triplicate wells (“medium only”), or with 50 μL PHA-L 20 μg/ml or peptide at 2× final concentration in 80% X-vivol5, 0.2% DMSO and 20% PBS. Peptide solutions to be added to individual ELISpot wells were prepared in 96-well U-bottom plates (60 μL/well) that were then sealed with adhesive ELISA plate cover slips before replacing the plastic lid and being frozen at −80° C. 96-well plates containing peptide solutions were thawed at room temperature for 10 min while being centrifuged at 300 g immediately prior to being added to ELISpot wells. Peptide pools and mitogen were assessed in triplicate wells, and individual peptides were assessed in duplicate wells. X-VIVO™15 (50 μL) was incubated with 80% X-vivol5, 0.2% DMSO and 20% PBS (50 μL) in triplicate wells (“no PBMC” control). A Zeiss automated ELISpot counter was used to determine spot forming units (SFU) per well (Zellnet Inc., Fort Lee, N.J. 07024). Laboratory staff were unaware of the arrangement of peptide solutions in ELISpot wells during assay setup and plate counting.

Substance | Peptide-specific IFN-gamma ELISpot response (PBMC [1]; Subject 1, 10 ug/ml) | Peptide-specific IFN-gamma ELISpot response (PBMC [1]; Subject 2, 10 ug/ml) | Peptide-specific IFN-gamma ELISpot response (PBMC [1]; Subject 3, 10 ug/ml) | Peptide-specific IFN-gamma ELISpot response (PBMC [1]; Subject 4, 10 ug/ml) | Peptide-specific IFN-gamma ELISpot response (PBMC [1]; Subject 5, 10 ug/ml) | Peptide-specific IFN-gamma ELISpot response (PBMC [1]; Subject 6, 10 ug/ml) | Peptide-specific IFN-gamma ELISpot response (PBMC [1]; Subject 7, 10 ug/ml) | Peptide-specific IFN-gamma ELISpot response (PBMC [1]; Subject 8, 10 ug/ml) | Peptide-specific IFN-gamma ELISpot response (PBMC [1]; Subject 9, 10 ug/ml) | Peptide-specific IFN-gamma ELISpot response (PBMC [1]; Subject 10, 10 ug/ml) | Percent of maximal response, ELISp (PBMC [2]; Subject 3, Max. 18 SFU) | Percent of maximal response, ELISp (PBMC [2]; Subject 4, Max. 36 SFU) | Percent of maximal response, ELISp (PBMC [2]; Subject 6, Max. 16 SFU) | Percent of maximal response, ELISp (PBMC [2]; Subject 8, Max. 17 SFU) | Percent of maximal response, ELISp (PBMC [2]; Subject 10, Max. 11 SFU) | IFNγ ELISpot % max Mean (PBMC [2]) [% max] | IFNγ ELISpot responses relative to Peptide 14 5 μM (PBMC [2]; Peptide 3 10 μg/mL (5.3 μM))
(pE)LQPFPQPELPYPQPQ-amide ([pGlu]LQPFPQPELPYPQPQ-NH2; SMILES CC(C)C[C@H](NC(=O)[C@@H]1CCC(=O)N1)C(=O)N[C@@H](CCC(N)=O)C(=O)N1CCC[C@H]1C(=O)N[C@@H](Cc1ccccc1)C(=O)N1CCC[C@H]1C(=O)N[C@@H](CCC(N)=O)C(=O)N1CCC[C@H]1C(=O)N[C@@H](CCC(=O)O)C(=O)N[C@@H](CC(C)C)C(=O)N1CCC[C@H]1C(=O)N[C@@H](Cc1ccc(O)cc1)C(=O)N1CCC[C@H]1C(=O)N[C@@H](CCC(N)=O)C(=O)N1CCC[C@H]1C(=O)N[C@@H](CCC(N)=O)C(N)=O) [Peptide 1] | 2 spot forming units per 0.8 million PBMC | 4 spot forming units per 0.8 million PBMC | 2 spot forming units per 0.8 million PBMC | 8 spot forming units per 0.8 million PBMC | 0 spot forming units per 0.8 million PBMC | 4 spot forming units per 0.8 million PBMC | 1 spot forming units per 0.8 million PBMC | 0 spot forming units per 0.8 million PBMC | 0 spot forming units per 0.8 million PBMC | 1 spot forming units per 0.8 million PBMC | 11 % of max | 22 % of max | 25 % of max | 0 % of max | 9 % of max | 13 | 
(pE)PEQPIPEQPQPYPQQ-amide ([pGlu]PEQPIPEQPQPYPQQ-NH2; SMILES CC[C@H](C)[C@H](NC(=O)[C@@H]1CCCN1C(=O)[C@H](CCC(N)=O)NC(=O)[C@H](CCC(=O)O)NC(=O)[C@@H]1CCCN1C(=O)[C@@H]1CCC(=O)N1)C(=O)N1CCC[C@H]1C(=O)N[C@@H](CCC(=O)O)C(=O)N[C@@H](CCC(N)=O)C(=O)N1CCC[C@H]1C(=O)N[C@@H](CCC(N)=O)C(=O)N1CCC[C@H]1C(=O)N[C@@H](Cc1ccc(O)cc1)C(=O)N1CCC[C@H]1C(=O)N[C@@H](CCC(N)=O)C(=O)N[C@@H](CCC(N)=O)C(N)=O) [Peptide 3] | 0 spot forming units per 0.8 million PBMC | 1 spot forming units per 0.8 million PBMC | 9 spot forming units per 0.8 million PBMC | 30 spot forming units per 0.8 million PBMC | 0 spot forming units per 0.8 million PBMC | 11 spot forming units per 0.8 million PBMC | 1 spot forming units per 0.8 million PBMC | 9 spot forming units per 0.8 million PBMC | 3 spot forming units per 0.8 million PBMC | 1 spot forming units per 0.8 million PBMC | 50 % of max | 83 % of max | 69 % of max | 53 % of max | 9 % of max | 53 | one-half
